In the series the test system is Rattus norvegicus. To be noted: oral.
The mark [1] stands for this setting: short-term, duration: 28 days, gavage, F, Sprague-Dawley, Clinical Observation: Salivation80 + Necropsy: Stomach-Thickening, limiting ridge Forestomach-Thickening, mucosa, focal + Histopathology: ….
Where [2] appears, read: short-term, duration: 28 days, gavage, M, Sprague-Dawley, Clinical Observation: Salivation80 + Necropsy: Stomach-Thickening, limiting ridge Forestomach-Thickening, mucosa, focal + Histopathology: ….
The mark [3] stands for this setting: subchronic, gavage, M, Sprague-Dawley, Clinical Observation: Soiled perigenital region + Body Weight Changes: Weight gain decrease + Food Consumption: decrease(week 1) + Blood ….
The mark [4] stands for this setting: subchronic, gavage, M, Sprague-Dawley, Hematology: RBC decrease, Hgb decrease, Ret increase + Blood Chemistry: Cho increase, PL increase + Absolute Organ Weight: Kidney increase….
Setting [5] is: subchronic, gavage, M, Sprague-Dawley, Clinical Observation: Salivation PtosisEmaciation Locomotor activity decrease + Body Weight Changes: Gain decrease + Blood Chemistry: TP ….
[6] abbreviates: short-term, duration: 28 days, gavage, F, Sprague-Dawley, Urinalysis: Volume increasep H decrease + Hematology: APTT increase, PT increase + Blood Chemistry: TP increase, Glu decrease, Cho increase….
The mark [7] stands for this setting: short-term, duration: 28 days, gavage, M, Sprague-Dawley, Urinalysis: Volume increasep H decrease + Hematology: APTT increase, PT increase + Blood Chemistry: TP increase, Glu decrease, Cho increase….
[8] abbreviates: subchronic, gavage, M, Sprague-Dawley, Absolute Organ Weight: Liver increase + Relative Organ Weight: Liver increase + Necropsy: Stomach-Thickening of limiting ledge + ….

The structures appear in SMILES notation. Structures can show the parent of a compound that is named as a salt.

Consider `C=Cc1ccncc1` [4-Vinylpyridine], for which, under setting [1], the LOEL came out at 80 mg/kg-day and the NOEL was 40 mg/kg-day. Further, under setting [2], the LOEL was 40 mg/kg-day and the NOEL amounted to 20 mg/kg-day.

Consider `Nc1ccc2cc(S(=O)(=O)O)ccc2c1` [6-Aminonaphthalene-2-sulfonic acid], for which the NOEL (short-term, duration: 28 days, gavage, M/F, Urinalysis: pH decrease + Blood Chemistry: GOT increase) was 300 mg/kg-day.

As for `O=C/C=C/c1ccccc1` [(2E)-3-Phenylprop-2-enal], the NOEL is less than 300 mg/kg-day (chronic, duration: 14 weeks, diet, F, Fischer 344, Body Weight Changes: decrease + Food Consumption: decrease + Hematology: Ret decrease, Plt decrease + Blood Chemistry: Bile acid increase, …) and less than 320 mg/kg-day (chronic, duration: 14 weeks, diet, M/F, Fischer 344, Body Weight Changes: decrease + Food Consumption: decrease + Hematology: Ret decrease, Plt decrease + Blood Chemistry: Bile acid increase, …). On to `C/C=C/C=C/C=O` [(2E,4E)-2,4-Hexadienal], for which, under “chronic, duration: 14 weeks, gavage, M/F, Fischer 344, Clinical Observation: Hypersalivation + Body Weight Changes: decrease + Histopathology: Stomach/forestomach-Epithelium hyperplasia Stomach/…”, the NOEL was 15 mg/kg-day. For the compound `CC/C=C\CCOC(=O)c1ccccc1O` [(3Z)-Hex-3-en-1-yl salicylate], the NOAEL – broadly, the highest tested level that showed no adverse finding – (subchronic, duration: 42 days, gavage, M, Sprague-Dawley, Water Consumption: increase + Urinalysis: Volume increase, Osmo decrease + Hematology: RBC decrease, MCV increase, MCHC increase, RET …) is 120 mg/kg-day. Turning to `CC(C)c1ccc2oc3nc(N)c(C(=O)O)cc3c(=O)c2c1` [Amlenanox], for the setting “subchronic, duration: 35 days, gavage, M/F, Wistar, Blood Chemistry: ALP increase + Absolute Organ Weight: Cecum increase, Stomach increase + Relative Organ Weight: Carcass increase, Cecum …”, the NOEL came to 200 mg/kg-day.

For the compound `COc1ccc(OC)c(N)c1` [Benzenamine, 2,5-dimethoxy-], the NOEL (short-term, duration: 28 days, gavage, M/F, Clinical Observation: Salivation + Body Weight Changes: Weight gain decrease + Food Consumption: decrease + Hematology: HGB decrease, RET …) stood at 1 mg/kg-day. As to `Cc1cccc(Cl)c1Cl` [Benzene, 1,2-dichloro-3-methyl-], under setting [3], the NOAEL worked out at 200 mg/kg-day and the NOEL is less than 50 mg/kg-day.

`Sc1ccccc1` [Benzenethiol]: under setting [4], the LOAEL (as a rule, the lowest tested level that showed an adverse finding) is 0.4 mg/kg-day; the LOEL came out at 0.4 mg/kg-day; the NOAEL was less than 0.4 mg/kg-day; the NOEL was less than 0.4 mg/kg-day. With `N#Cc1cccc([N+](=O)[O-])c1` [Benzonitrile, 3-nitro-], the NOEL (short-term, duration: 28 days, gavage, M/F, Deaths + Clinical Observation: Paralytic gait Piloerection Reddish tears + Body Weight Changes: Body weight gain decrease + Hematology: WBC…) was less than 0.5 mg/kg-day.

For the compound `ClC(Cl)(Cl)c1ccccc1` [Benzotrichloride], the NOAEL (short-term, duration: 28 days, diet, M/F, CD, Blood Chemistry: SDH(sorbitol dehydrogenase) increase, LDH increase + Histopathology: Liver: Anisokaryosis associated with pyknosis, …) is less than 0.5 ppm.

As for `CCCCN(CCCC)C(=S)[S-].CCCCN(CCCC)C(=S)[S-].[Cu+2]` [Bis(N,N-dibutyldithiocarbamato)copper], under “subchronic, gavage, M, Sprague-Dawley, Urinalysis: Protein increase, Cl increase + Blood Chemistry: Cho increase + Relative Organ Weight: Adrenal decrease”, the NOEL was less than 40 mg/kg-day. Regarding `S=C(SSSSC(=S)N1CCCCC1)N1CCCCC1` [Bis(piperidinothiocarbonyl) tetrasulphide], the NOEL is, setting by setting: (short-term, duration: 28 days, gavage, F, Sprague-Dawley, Histopathology: Kidney-Hyaline droplet, proximal tubular epithelium Kidney-Eosinophilic body, proximal tubular epithelium) 1000 mg/kg-day; (short-term, duration: 28 days, gavage, M, Sprague-Dawley, Histopathology: Kidney-Hyaline droplet, proximal tubular epithelium Kidney-Eosinophilic body, proximal tubular epithelium) 100 mg/kg-day; (subchronic, gavage, M, Sprague-Dawley, Clinical Observation: Light brown stool + Body Weight Changes: decrease, R) 1000 mg/kg-day. With `O=C1C=CC(=O)N1c1ccc(Cc2ccc(N3C(=O)C=CC3=O)cc2)cc1` [Bismaleimide], for the setting “subchronic, gavage, Sprague-Dawley”, the NOEL turned out to be 1000 mg/kg-day. As to `CC(O)COc1ccc(C(C)(C)c2ccc(OCC(C)O)cc2)cc1` (centres undefined) [Bisphenol A bis(polypropylene glycol) ether], under setting [5], the LOAEL turned out to be 120 mg/kg-day, the LOEL came out at 120 mg/kg-day, the NOAEL was 30 mg/kg-day and the NOEL came out at 30 mg/kg-day. As to `O=c1[nH]c(=O)n([C@@H]2O[C@H](CO)[C@@H](O)[C@@H]2O)cc1/C=C/Br` [Bravavir], where the note is “chronic, duration: 182 days, gavage, M/F, Wistar, Deaths + Clinical Observation: Soiled eyelid Smudge, perioral, nose Flush, ear auricle Polyuria Soiled perineal region Decrease or loss of …”, the NOEL is 80 mg/kg-day. Consider `CCCC=NO` [Butyraldehyde oxime], for which, where the note is “subchronic, gavage, M/F, Fischer 344, Deaths + Body Weight Changes: decrease + Urinalysis: Thiocyanate (I1/4mol/24 hr) increase, Thiocyanate/creatinine ratio increase, Creatinine…”, the NOEL is less than 25 mg/kg-day.

With `c1ccc2c(c1)[nH]c1ccccc12` [Carbazole], where the note is “subchronic, gavage, M, Sprague-Dawley, Body Weight Changes: decrease + Blood Chemistry: T-Cho increase, PL increase, Glu decrease + Absolute Organ Weight: Liver increase, Kidney …”, the NOEL came to 25 mg/kg-day. Under “subchronic, duration: 13 weeks, gavage, F, Fischer 344, Histopathology: Liver-Granuloma inflammation”, `CC(Cl)CCCC(Cl)CCCC(Cl)CCCC(Cl)CCCC(Cl)CCCC(Cl)CCCl` (centres undefined) [Chloro C22-26 alkanes] came in with an NOEL of less than 235 mg/kg-day. As to `N#CN=C(N)N` [Cyanoguanidine], the NOAEL (subchronic, duration: 44 days, gavage, M, CD(SD)) was found to be 1000 mg/kg-day.

For the compound `C1CCC2CCCCC2C1` (centres undefined) [Decalin], the LOEL runs as follows: under setting [6], 200 mg/kg-day; under setting [7], 40 mg/kg-day. The NOEL by setting is: under setting [6], 40 mg/kg-day; under setting [7], less than 40 mg/kg-day. For `CCOC(=O)/C=C\C(=O)OCC` [Diethyl maleate], under setting [8], the NOAEL came to 20 mg/kg-day and the NOEL turned out to be 20 mg/kg-day. Take `CC(O)CNCC(C)O` (centres undefined) [Diisopropanolamine]: the NOAEL runs as follows: (subchronic, duration: 90 days, drinking water, F, Fischer 344, Water Consumption: decrease + Urinalysis: Volume decrease, Specific gravity increase + Absolute Organ Weight: Kidney increase500 + Relative…) 500 mg/kg-day; (subchronic, duration: 90 days, drinking water, M/F, Fischer 344, Water Consumption: decrease + Urinalysis: SG increase, Volume decrease + Absolute Organ Weight: Kidney increase + Relative Organ Weight: …) 100 mg/kg-day; (subchronic, duration: 90 days, drinking water, M, Fischer 344, Water Consumption: decrease + Urinalysis: Volume decrease, Specific gravity increase + Absolute Organ Weight: Kidney increase500 + Relative…) 100 mg/kg-day. On to `CC(=O)OC1CC(C)OC(C)O1` (centres undefined) [Dimethoxane], for which the NOEL (subchronic, duration: 13 weeks, gavage, M/F, Fischer 344, Body Weight Changes: decrease + Relative Organ Weight: Kidney increase, Brain increase, Lung increase + Histopathology: Stomach/forestomach…) is 31 mg/kg-day.

Take `CO[Si](C)(C)OC` [Dimethoxydimethylsilane]: the NOAEL (short-term, duration: 29 days, gavage, M/F, Sprague-Dawley, Deaths + Clinical Observation: Soiling of chin and urogenital area Soiling of muzzle + Absolute Organ Weight: Adrenal decrease, Liver …) stood at 250 mg/kg-day. On to `COC(=O)c1cccc(C(=O)OC)c1` [Dimethyl isophthalate], for which the NOAEL (subchronic, gavage, M, Sprague-Dawley, Clinical Observation: Salivation + Urinalysis: Volume increase, Na increase) was determined as 250 mg/kg-day.

Regarding `CCCCCCCCCCCCCCCCCC[N+](C)(C)CCCCCCCCCCCCCCCCCC.[Cl-]` [Dimethyldioctadecylammonium chloride], the NOAEL (short-term, duration: 28 days, gavage, M/F, Wistar, Body Weight Changes: Weight gain decrease + Hematology: WBC increase + Histopathology: Adrenal: Necrosis, cortex Adrenal: Granulocytes …) turned out to be 100 mg/kg-day. With `CCCCCCC[CH2][Sn]([CH2]CCCCCCC)([S]CC(=O)OCCCCCC(C)C)[S]CC(=O)OCCCCCC(C)C` [Dioctyltin-S,S'-bis(isooctylmercaptoacetate)], the NOAEL (subchronic, duration: 13 weeks, diet, Sprague-Dawley) worked out at 14.4 mg/kg-day. For `C=C[Si](C)(C)O[Si](C)(C)C=C` [Divinyltetramethyldisiloxane], where the note is “short-term, duration: 28 days, gavage, M, CD(SD), Clinical Observation: Clear material around the mouth Red material around the mouth + Body Weight Changes: Mean body weight decrease, Weight…”, the NOAEL is less than 50 mg/kg-day. Consider `COC1COC(OC2COC(OC3COC(OC4COC(OC)C(OS(=O)(=O)[O-])C4OS(=O)(=O)[O-])C(OC4OC(C(=O)[O-])C(OC)C(OS(=O)(=O)[O-])C4OS(=O)(=O)[O-])C3OS(=O)(=O)[O-])C(OS(=O)(=O)[O-])C2OS(=O)(=O)[O-])C(OS(=O)(=O)[O-])C1OS(=O)(=O)[O-].[Na+].[Na+].[Na+].[Na+].[Na+].[Na+].[Na+].[Na+].[Na+].[Na+]` (centres undefined) [Elmiron], for which, where the note is “repeat dose other, gavage, M/F, Fischer 344, Hematology: Hct decrease, Hgb decrease, RBC decrease, Plt increase, WBC increase + Absolute Organ Weight: Liver increase, Spleen increase, …”, the NOEL is less than 63 mg/kg-day. Consider `Cc1cc(O)c2c(c1)C(=O)c1cc(O)cc(O)c1C2=O` [Emodin], for which the NOEL (chronic, duration: 14 weeks, diet, M/F, Fischer 344, Clinical Observation: Body color change Diarrhea + Body Weight Changes: decrease. >2500 + Food Consumption: decrease + Hematology: Hct …) was less than 24.4 mg/kg-day. `CCOC(=O)CC#N` [Ethyl cyanoacetate]: for the setting “subchronic, duration: 90 days, gavage, M/F, Wistar, Urinalysis: Volume increase + Hematology: WBC decrease, RBC decrease, HGB decrease, HTC decrease + Histopathology: Liver: Inflammation, …”, the NOAEL is 100 mg/kg-day. On to `CC(O)(P(=O)(O)O)P(=O)(O)O` [Etidronic acid], for which the NOAEL (subchronic, duration: 90 days, diet, M/F, Body Weight Changes: decrease + Food Consumption: decrease + Hematology: RBC increase, HGB decrease, HCT decrease + Absolute Organ Weight: …) is greater than 2880 mg/kg-day.

Take `CC(C)(C)c1cc(CCC(=O)O)cc(C(C)(C)C)c1O` [Fenozan]: the NOEL (subchronic, duration: 90 days, gavage, M/F, Blood Chemistry: GPT increase, TP increase, GLB increase, T-CHO increase + Organ Weight: Liver increase + Histopathology: Liver - …) was determined as 3 mg/kg-day.

For `C[C@@H](O)[C@H]1C(=O)N2C(C(=O)O)=C([C@H]3CCCO3)S[C@H]12` [Fropenem], the NOAEL (chronic, duration: 182 days, gavage, M/F, CD, Clinical Observation: Loose stool Soiled perineal region + Body Weight Changes: decrease + Food Consumption: decrease + Water Consumption: …) is 100 mg/kg-day.

Source of the values: EPA's ToxValDB 9.5.
